Laboratory results reported in US7157430B2, “(Substituted)acyl dipeptidyl inhibitors of the ICE/CED-3 family of cysteine proteases” (Idun Pharmaceuticals, Inc., priority 1998, dated 2007).

molecular target: T1, mICE (Mus musculus, UniProt P29452); assay: Dissociation constant Ki and irreversible rate constant k3 for irreversible inhibitors, ICE; assay type: biochemical; settings: continuous assay 60 min, reaction initiated by adding enzyme
T1 sequence (P29452 123-296 limits assumed): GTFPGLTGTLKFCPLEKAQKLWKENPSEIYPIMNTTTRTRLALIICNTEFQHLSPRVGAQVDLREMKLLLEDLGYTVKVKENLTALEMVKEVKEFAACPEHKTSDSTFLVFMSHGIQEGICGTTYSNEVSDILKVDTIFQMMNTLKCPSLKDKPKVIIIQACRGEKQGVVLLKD
T1 sequence (P29452 315-402 limits assumed): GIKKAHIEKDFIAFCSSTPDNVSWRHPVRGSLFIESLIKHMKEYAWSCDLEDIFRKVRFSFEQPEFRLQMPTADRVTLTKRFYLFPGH
Source text: (§1) For the irreversible inhibition of a ICE/ced-3 Family Protease enzyme with a competitive irreversible inhibitor; using the model represented by the following formulas: […]
(§2) The product formation at time t may be expressed as:
(§3) [formula] where E, I, EI and E-I denote the active enzyme, inhibitor, non-covalent enzyme-inhibitor complex and covalent enzyme-inhibitor adduct, respectively. The Ki value is the overall dissociation constant of the reversible binding steps, and k3 is the irreversible rate constant. The [S] and Ks values are the substate concentration and dissociation constant of the substrate bound to the enzyme, respectively. [E]^T is the total enzyme concentration.
(§4) The above equations were used to determine the Ki and k3 values of a given inhibitor bound to a ICE/ced-3 family protease. Thus, a continuous assay was run for sixty minutes at various concentrations of the inhibitor and the substrate. The assay was formulated essentially the same as described above for generating the data in Table 1, except that the reaction was initiated by adding the enzyme to the substrate-inhibitor mixture. The Ki and k3 values were obtained by simulating the product AMC formation as a function of time according to Equation 1.
(§5) The reference compound for this assay was Cbz-ValAlaAsp-CH2F and the values are denoted in Table 2 as “Reference”. The Ki values in Table 2 are in micromolar (μM). The k3/Ki values are in moles^−1 seconds^−1 (M^−1s^−1).

SMILES | Ki [nM] | mICE k3/Ki
CC(C)[C@H](NC(=O)COc1cccc2ccccc12)C(=O)N[C@@H](CC(=O)O)C(=O)COc1cc(F)cc(F)c1 [Example 73] | 592 | 2,170 M^−1s^−1
CC(C)[C@H](NC(=O)COc1cccc2ccccc12)C(=O)N[C@@H](CC(=O)O)C(=O)COc1ccc(F)c(F)c1F [Example 74] | 280 | 11,900 M^−1s^−1
CC(C)[C@H](NC(=O)COc1cccc2ccccc12)C(=O)N[C@@H](CC(=O)O)C(=O)COc1cc(F)c(F)cc1F [Example 77] | 262 | 11,500 M^−1s^−1
CC(C)[C@H](NC(=O)COc1cccc2ccccc12)C(=O)N[C@@H](CC(=O)O)C(=O)COc1c(F)c(F)c(F)c(F)c1F [Example 80] | 926 | 4,700 M^−1s^−1

Now those with a lower Ki, led by results:

Ki [nM] | mICE k3/Ki | SMILES
147 | 14,700 M^−1s^−1 | CC(C)[C@H](NC(=O)COc1cccc2ccccc12)C(=O)N[C@@H](CC(=O)O)C(=O)COc1cc(F)cc(F)c1F [Example 75]
137 | 20,700 M^−1s^−1 | CC(C)[C@H](NC(=O)COc1cccc2ccccc12)C(=O)N[C@@H](CC(=O)O)C(=O)COc1c(F)cc(F)cc1F [Example 78]
91 | 77,500 M^−1s^−1 | CC(C)[C@H](NC(=O)COc1cccc2ccccc12)C(=O)N[C@@H](CC(=O)O)C(=O)COc1c(F)c(F)cc(F)c1F [Example 79]
90 | 47,100 M^−1s^−1 | CC(C)[C@H](NC(=O)COc1cccc2ccccc12)C(=O)N[C@@H](CC(=O)O)C(=O)COc1c(F)ccc(F)c1F [Example 76]
63 | 143,000 M^−1s^−1 | CC(C)[C@H](NC(=O)COc1cccc2ccccc12)C(=O)N[C@@H](CC(=O)O)C(=O)COP(=O)(c1ccccc1)c1ccccc1 [Example 103]

molecular target: T2, CPP32 (Homo sapiens, UniProt P42574); assay: Dissociation constant Ki and irreversible rate constant k3 for irreversible inhibitors, CPP32; assay type: biochemical; settings: continuous assay 60 min, reaction initiated by adding enzyme
T2 sequence (P42574 29-175 limits assumed): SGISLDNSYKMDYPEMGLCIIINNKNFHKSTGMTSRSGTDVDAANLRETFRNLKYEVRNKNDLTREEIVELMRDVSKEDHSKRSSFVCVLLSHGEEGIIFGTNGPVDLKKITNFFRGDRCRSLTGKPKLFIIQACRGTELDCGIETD
T2 sequence (P42574 176-277 limits assumed): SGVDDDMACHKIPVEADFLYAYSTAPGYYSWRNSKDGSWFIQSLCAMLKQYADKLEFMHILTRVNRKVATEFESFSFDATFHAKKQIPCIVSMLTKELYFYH
Source text: as §1, §2, §3, §4, §5

SMILES | CPP32 k3/Ki | Ki [nM]
CC(C)[C@H](NC(=O)COc1cccc2ccccc12)C(=O)N[C@@H](CC(=O)O)C(=O)COc1cc(F)cc(F)c1 [Example 73] | 9,240 M^−1s^−1 | 106
CC(C)[C@H](NC(=O)COc1cccc2ccccc12)C(=O)N[C@@H](CC(=O)O)C(=O)COc1ccc(F)c(F)c1F [Example 74] | 35,800 M^−1s^−1 | 135
CC(C)[C@H](NC(=O)COc1cccc2ccccc12)C(=O)N[C@@H](CC(=O)O)C(=O)COc1cc(F)c(F)cc1F [Example 77] | 24,400 M^−1s^−1 | 123
CC(C)[C@H](NC(=O)COc1cccc2ccccc12)C(=O)N[C@@H](CC(=O)O)C(=O)COc1c(F)c(F)c(F)c(F)c1F [Example 80] | 56,600 M^−1s^−1 | 99

Second part, the compound after the results:

CPP32 k3/Ki | Ki [nM] | SMILES
60,100 M^−1s^−1 | 61 | CC(C)[C@H](NC(=O)COc1cccc2ccccc12)C(=O)N[C@@H](CC(=O)O)C(=O)COc1cc(F)cc(F)c1F [Example 75]
114,000 M^−1s^−1 | 38 | CC(C)[C@H](NC(=O)COc1cccc2ccccc12)C(=O)N[C@@H](CC(=O)O)C(=O)COc1c(F)cc(F)cc1F [Example 78]
268,000 M^−1s^−1 | 42 | CC(C)[C@H](NC(=O)COc1cccc2ccccc12)C(=O)N[C@@H](CC(=O)O)C(=O)COc1c(F)c(F)cc(F)c1F [Example 79]
188,000 M^−1s^−1 | 63 | CC(C)[C@H](NC(=O)COc1cccc2ccccc12)C(=O)N[C@@H](CC(=O)O)C(=O)COc1c(F)ccc(F)c1F [Example 76]
351,000 M^−1s^−1 | 38 | CC(C)[C@H](NC(=O)COc1cccc2ccccc12)C(=O)N[C@@H](CC(=O)O)C(=O)COP(=O)(c1ccccc1)c1ccccc1 [Example 103]

molecular target: T3, MCH-2 (Homo sapiens, UniProt P55212); assay: Dissociation constant Ki and irreversible rate constant k3 for irreversible inhibitors, Mch2; assay type: biochemical; settings: continuous assay 60 min, reaction initiated by adding enzyme
T3 sequence (P55212 24-179 limits assumed): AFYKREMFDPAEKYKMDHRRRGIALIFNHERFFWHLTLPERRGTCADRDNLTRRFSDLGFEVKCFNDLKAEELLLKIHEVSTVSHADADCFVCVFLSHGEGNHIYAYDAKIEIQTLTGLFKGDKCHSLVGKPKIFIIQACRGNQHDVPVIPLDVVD
T3 sequence (P55212 194-293 limits assumed): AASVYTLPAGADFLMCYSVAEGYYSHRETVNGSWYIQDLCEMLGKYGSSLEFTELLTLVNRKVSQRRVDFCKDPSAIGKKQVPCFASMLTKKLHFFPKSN
Source text: as §1, §2, §3, §4, §5

SMILES | Ki [nM] | MCH-2 k3/Ki
CC(C)[C@H](NC(=O)COc1cccc2ccccc12)C(=O)N[C@@H](CC(=O)O)C(=O)COc1cc(F)cc(F)c1 [Example 73] | 862 | 110 M⁻¹ s⁻¹
CC(C)[C@H](NC(=O)COc1cccc2ccccc12)C(=O)N[C@@H](CC(=O)O)C(=O)COc1ccc(F)c(F)c1F [Example 74] | 1250 | 250 M⁻¹ s⁻¹
CC(C)[C@H](NC(=O)COc1cccc2ccccc12)C(=O)N[C@@H](CC(=O)O)C(=O)COc1cc(F)c(F)cc1F [Example 77] | 526 | 630 M⁻¹ s⁻¹
CC(C)[C@H](NC(=O)COc1cccc2ccccc12)C(=O)N[C@@H](CC(=O)O)C(=O)COc1c(F)c(F)c(F)c(F)c1F [Example 80] | 23 | 13,600 M^−1s^−1

Next, values leading:

Ki [nM] | MCH-2 k3/Ki | SMILES
221 | 1,510 M^−1s^−1 | CC(C)[C@H](NC(=O)COc1cccc2ccccc12)C(=O)N[C@@H](CC(=O)O)C(=O)COc1cc(F)cc(F)c1F [Example 75]
81 | 5,140 M^−1s^−1 | CC(C)[C@H](NC(=O)COc1cccc2ccccc12)C(=O)N[C@@H](CC(=O)O)C(=O)COc1c(F)cc(F)cc1F [Example 78]
6 | 78,900 M^−1s^−1 | CC(C)[C@H](NC(=O)COc1cccc2ccccc12)C(=O)N[C@@H](CC(=O)O)C(=O)COc1c(F)c(F)cc(F)c1F [Example 79]
58 | 81,700 M^−1s^−1 | CC(C)[C@H](NC(=O)COc1cccc2ccccc12)C(=O)N[C@@H](CC(=O)O)C(=O)COc1c(F)ccc(F)c1F [Example 76]
38 | 39,700 M^−1s^−1 | CC(C)[C@H](NC(=O)COc1cccc2ccccc12)C(=O)N[C@@H](CC(=O)O)C(=O)COP(=O)(c1ccccc1)c1ccccc1 [Example 103]

molecular target: MCH-5 (Homo sapiens, UniProt Q14790); assay: Dissociation constant Ki and irreversible rate constant k3 for irreversible inhibitors, Mch5; assay type: biochemical; settings: continuous assay 60 min, reaction initiated by adding enzyme
Source text: as §1, §2, §3, §4, §5

Chain of MCH-5 (Q14790 217-374 limits assumed, species assumed): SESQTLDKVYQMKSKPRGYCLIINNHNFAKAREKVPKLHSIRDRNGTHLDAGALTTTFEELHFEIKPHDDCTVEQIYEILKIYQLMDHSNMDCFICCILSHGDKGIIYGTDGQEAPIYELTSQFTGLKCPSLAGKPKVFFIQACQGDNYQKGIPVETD
Chain of MCH-5 (Q14790 385-479 limits assumed, species assumed): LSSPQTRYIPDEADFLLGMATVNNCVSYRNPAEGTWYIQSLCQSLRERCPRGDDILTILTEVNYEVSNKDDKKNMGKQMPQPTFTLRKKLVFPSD

SMILES | Ki [nM] | MCH-5 k3/Ki
CC(C)[C@H](NC(=O)COc1cccc2ccccc12)C(=O)N[C@@H](CC(=O)O)C(=O)COc1cc(F)cc(F)c1 [Example 73] | 1030 | 150 M⁻¹ s⁻¹
CC(C)[C@H](NC(=O)COc1cccc2ccccc12)C(=O)N[C@@H](CC(=O)O)C(=O)COc1ccc(F)c(F)c1F [Example 74] | 1080 | 770 M⁻¹ s⁻¹
CC(C)[C@H](NC(=O)COc1cccc2ccccc12)C(=O)N[C@@H](CC(=O)O)C(=O)COc1cc(F)c(F)cc1F [Example 77] | 1500 | 670 M⁻¹ s⁻¹
CC(C)[C@H](NC(=O)COc1cccc2ccccc12)C(=O)N[C@@H](CC(=O)O)C(=O)COc1c(F)c(F)c(F)c(F)c1F [Example 80] | 146 | 8,040 M^−1s^−1

Now from value to compound:

Ki [nM] | MCH-5 k3/Ki | SMILES
794 | 1,470 M^−1s^−1 | CC(C)[C@H](NC(=O)COc1cccc2ccccc12)C(=O)N[C@@H](CC(=O)O)C(=O)COc1cc(F)cc(F)c1F [Example 75]
202 | 9,080 M^−1s^−1 | CC(C)[C@H](NC(=O)COc1cccc2ccccc12)C(=O)N[C@@H](CC(=O)O)C(=O)COc1c(F)cc(F)cc1F [Example 78]
34 | 30,200 M^−1s^−1 | CC(C)[C@H](NC(=O)COc1cccc2ccccc12)C(=O)N[C@@H](CC(=O)O)C(=O)COc1c(F)c(F)cc(F)c1F [Example 79]
81 | 17,000 M^−1s^−1 | CC(C)[C@H](NC(=O)COc1cccc2ccccc12)C(=O)N[C@@H](CC(=O)O)C(=O)COc1c(F)ccc(F)c1F [Example 76]
25 | 59,300 M^−1s^−1 | CC(C)[C@H](NC(=O)COc1cccc2ccccc12)C(=O)N[C@@H](CC(=O)O)C(=O)COP(=O)(c1ccccc1)c1ccccc1 [Example 103]
